Molecules are shown by their SMILES.

The target of the first test is T1, Sortase A (SrtA) (Staphylococcus aureus, UniProt Q2FV99).
T1 construct: SrtA residues Gln-60-Lys-206 (SrtA ΔN59), from S. aureus USA300, 6 × His tag
T1 sequence (Q2FV99 60-206): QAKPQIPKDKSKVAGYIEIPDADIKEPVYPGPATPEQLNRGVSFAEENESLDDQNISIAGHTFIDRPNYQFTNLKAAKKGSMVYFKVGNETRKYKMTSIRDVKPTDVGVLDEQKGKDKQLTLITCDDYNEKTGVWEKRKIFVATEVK
Description: fluorescence quenching (KA); also FRET inhibition of purified SrtA, IC50 […]. The class given is binding. The note with it: read-out: fluorescence quenching (KA), IC50 31.20 μ (converted).
Consider `O=C(O)[C@H]1O[C@@H](Oc2c(O)cc(O)c3c(=O)c(O)c(-c4ccc(O)c(O)c4)oc23)[C@H](O)[C@@H](O)[C@@H]1O` [hibifolin], for which the Kd was 58.1 µM.

Another test has as its target T1, Sortase A (SrtA). The experiment in a line: biochemical. Details: FRET cleavage of Abz-LPATG-Dap(Dnp)-NH2 by purified SrtA, fluorescence 309/420 nm. The note with it: library screen; read-out: Relative inhibition rate (%). As to the method:
Fluorescence resonant energy transfer (FRET) was used to screen the effect of the SrtA inhibitor ([22]). Purified SrtA (4 μM) and hibifolin with different concentrations were added into a 100 μL reaction system, incubating at 37°C for 1 h. A fluorescent substrate peptide Abz-LPATG-Dap (Dnp)-NH2 (10 μM) (Beijing, China) was added to initiate the reaction. After incubating at 37°C for 20 min, the fluorescent microplate reader was measured with the excitation wavelength at 309 nm and the emission wavelength at 420 nm. Subsequently, a gradient concentration inhibition curve was performed and IC50 was calculated. When the inhibitory activity was greater than 60%, the compound was considered a potential inhibitor. The representative list of our nature compounds library has been compiled in Table S3 in Supplemental File 1 along with the results of the initial screening.
Usually inhibition stands for the change of the read-out against control, counted positive when it falls. As to `COc1ccc(-c2coc3cc(OC)ccc3c2=O)cc1` [7,4'-Dimethoxyisoflavone], the inhibition at 64 µg/mL came out at 44%.
The same measure, in the same setting: the same measure for `O=c1cc(-c2ccc(O)cc2)oc2cc(O)c(O)c(O)c12` [Scutellarein]: 42.1%; for `C=CCc1cc(OC)c(O[C@@H](C)[C@H](O)c2ccc(O)c(OC)c2)c(OC)c1` [Myrislignan]: 1.72%.
Same read-out and setting: the result for `Oc1cc(O)c2c(c1)O[C@H](c1ccc(O)c(O)c1)[C@H](O)[C@H]2c1c(O)cc(O)c2c1O[C@H](c1ccc(O)c(O)c1)[C@H](O)C2` [Procyanidin B2] reads 13.8%; that for `COc1ccc(-c2oc3cc(OC)c(OC)c(O)c3c(=O)c2OC)cc1OC` [Artemetin], 32.8%.
On to `COc1cc2c(c(OC)c1OC)-c1c(cc3c(c1OC)OCO3)[C@H](OC(C)=O)[C@H](C)[C@H](C)C2` [Kadsurin], for which the inhibition at 64 µg/mL was determined as 16.9%.
On the same count and under the same terms, the same measure for `O=c1cc(-c2ccc(O)cc2)oc2cc(O[C@@H]3O[C@H](CO)[C@@H](O)[C@H](O)[C@H]3O)cc(O)c12` [Cosmosiin]: 46.8%; for `COc1cc(-c2oc3cc(OC)c(OC)c(O)c3c(=O)c2OC)ccc1O` [Chrysosplenetin]: 34.2%.
On the same count and under the same terms, the result for `COc1ccc(-c2cc(=O)c3c(OC)cc(OC)c(OC)c3o2)cc1` [5,7,8,4'-Tetramethoxyflavone] reads 27.4%; that for `O=c1c(O[C@@H]2O[C@@H](CO)[C@H](O)[C@H]2O)c(-c2ccc(O)c(O)c2)oc2cc(O)cc(O)c12` [Avicularin], 45.3%.
The same measure, in the same setting: the same measure for `CC(C)=CCC/C(C)=C/Cc1cc(-c2coc3cc(O)ccc3c2=O)ccc1O` [Corylifol A]: 36.8%.
With `C/C=C/c1cc(OC)c2c(c1)[C@@H](C)[C@H](c1ccc3c(c1)OCO3)O2` [(-)-Licarin B], the inhibition at 64 µg/mL is 38.9%.
On the same count and under the same terms, the result for `O=C(O[C@H]1[C@H](Oc2c(-c3ccc(O)c(O)c3)oc3cc(O)cc(O)c3c2=O)O[C@H](CO)[C@H](O)[C@@H]1O)c1cc(O)c(O)c(O)c1` [2"-O-Galloylhyperin] reads 42.4%; that for `O=c1c(O[C@@H]2O[C@H](CO)[C@@H](O)[C@H](O)[C@H]2O[C@@H]2O[C@H](CO)[C@@H](O)[C@H](O)[C@H]2O)c(-c2ccc(O)c(O)c2)oc2cc(O)cc(O)c12` [Quercetin 3-O-sophoroside], 37.8%.
In the case of `O=C(O)[C@H]1O[C@@H](Oc2c(O)cc(O)c3c(=O)c(O)c(-c4ccc(O)c(O)c4)oc23)[C@H](O)[C@@H](O)[C@@H]1O` [hibifolin], the inhibition at 64 µg/mL worked out at 65.3%.
Regarding `COc1ccc(-c2cc(=O)c3c(O)c(OC)c(OC)c(OC)c3o2)cc1OC` [5-Demethylnobiletin], the inhibition at 64 µg/mL was 54.3%.
Still for that read-out and setting: the result for `COc1ccc([C@@H]2OC[C@H]3[C@@H]2CO[C@@H]3c2ccc(O[C@@H]3O[C@H](CO)[C@@H](O)[C@H](O)[C@H]3O)c(OC)c2)cc1OC` [Forsythin] reads 14.8%; that for `COc1cc(-c2coc3cc(O)c(OC)c(O)c3c2=O)cc(O)c1OC` [Irigenin], 30.3%; that for `O=c1c(-c2ccc(O[C@@H]3O[C@H](CO)[C@@H](O)[C@H](O)[C@H]3O)cc2)coc2cc(O)cc(O)c12` [Sophoricoside], 14.4%.
On the same count and under the same terms, the same measure for `COc1ccc(-c2cc(=O)c3c(OC)c(OC)c(OC)cc3o2)cc1OC` [Sinensetin]: 23.8%.
For the compound `COc1ccc(-c2oc3cc(OC)cc(O)c3c(=O)c2OC)cc1` [Kaempferol 3,7,4'-trimethyl ether], the inhibition at 64 µg/mL came out at 32.6%.
On to `O=c1c(O[C@@H]2O[C@H](CO)[C@@H](O)[C@H](O)[C@H]2O[C@@H]2OC[C@@H](O)[C@H](O)[C@H]2O)c(-c2ccc(O)cc2)oc2cc(O)cc(O)c12` [Leucoside], for which the inhibition at 64 µg/mL turned out to be 27.3%.
`COc1cc(O)c2c(=O)cc(-c3ccc(OC)c(-c4c(O)cc(O)c5c(=O)cc(-c6ccc(O)cc6)oc45)c3)oc2c1` [Ginkgetin]: the inhibition at 64 µg/mL was found to be 0.25%.
Same read-out and setting: the same measure for `COc1cc(C[C@H](C)[C@H](C)Cc2ccc3c(c2)OCO3)ccc1O` [Anwulignan]: 15.6%.
Still for that read-out and setting: the same measure for `COc1c(O[C@@H]2O[C@H](CO)[C@@H](O)[C@H](O)[C@H]2O)cc2occ(-c3ccc(O)cc3)c(=O)c2c1O` [Tectoridin]: 20%.
Turning to `O=C(/C=C/c1ccc(O)c2c1[C@H](C(=O)O)[C@@H](c1ccc(O)c(O)c1)O2)O[C@H](Cc1ccc(O)c(O)c1)C(=O)O` [Lithospermic acid], the inhibition at 64 µg/mL was 51.7%.
Same read-out and setting: the result for `COc1cc(-c2oc3cc(O)cc(O)c3c(=O)c2O[C@@H]2O[C@H](CO[C@@H]3O[C@@H](C)[C@H](O)[C@@H](O)[C@H]3O)[C@@H](O)[C@H](O)[C@H]2O)ccc1O` [Narcissin] reads 44.5%; that for `COc1c(O)cc2oc(-c3ccc(O)cc3)cc(=O)c2c1O` [Hispidulin], 50%.
On to `COc1ccc(-c2cc(=O)c3c(O)cc(O)cc3o2)cc1-c1c(O)cc(O)c2c(=O)cc(-c3ccc(O)cc3)oc12` [Bilobetin], for which the inhibition at 64 µg/mL was determined as 17.8%.

The same test, now with this note: read-out: SrtA relative inhibition rate (%).
In the case of `O=C1c2c(O)cc(O)cc2O[C@H](c2ccc(O)c(O)c2)[C@H]1O` [Taxifolin], the inhibition at 64 µg/mL is 56%.
Same read-out and setting: the result for `O=c1cc(-c2ccc(Oc3c(O)cc4oc(-c5ccc(O)cc5)cc(=O)c4c3O)cc2)oc2cc(O)cc(O)c12` [Hinokiflavone] reads 36.2%.
With `COC(=O)[C@H]1O[C@@H](Oc2cc3oc(-c4ccc(O)cc4)cc(=O)c3c(O)c2O)[C@H](O)[C@@H](O)[C@@H]1O` [Scutellarin Methyl Ester], the inhibition at 64 µg/mL came out at 73.8%.
Same read-out and setting: the result for `COc1ccc(-c2oc3cc(O)cc(O)c3c(=O)c2O)cc1O` [Tamarixetin] reads 26.2%.
As to `O=C(O)[C@H]1O[C@@H](Oc2c(O)cc(O)c3c(=O)c(O)c(-c4ccc(O)c(O)c4)oc23)[C@H](O)[C@@H](O)[C@@H]1O` [hibifolin], the inhibition at 64 µg/mL amounted to 74.6%.
For the compound `C[C@@H]1O[C@@H](Oc2cc(O)c3c(=O)c(O)c(-c4ccc(O)c(O)c4)oc3c2)[C@H](O)[C@H](O)[C@H]1O` [Vincetoxicoside B], the inhibition at 64 µg/mL is 57.2%.
On the same count and under the same terms, the same measure for `O=c1cc(-c2ccc(O)cc2)oc2c([C@@H]3O[C@H](CO)[C@@H](O)[C@H](O)[C@H]3O)c(O)c([C@@H]3O[C@H](CO)[C@@H](O)[C@H](O)[C@H]3O)c(O)c12` [Vicenin-2]: 67.6%.

For the origin of these results see paper PMC9430695.
